Tests used:
[1] = (§1) The drug is tested on WLS-370 corresponding to human gut metagenome with ENA study accession number: PRJEB37062 and ENA sample accession number: ERS12561793 for biotransformation under anaerobic condition. The drug concentrations were measured over 9 timepoints collected between 0 and 24 hours of incubation by liquid-chromatography-coupled mass spectrometry (LC–MS); settings: 2 µM
[2] = as §1, with “Z-001” for “WLS-370”, “mouse” for “human”, “ERS12561801” for “ERS12561793”; settings: 2 µM
[3] = human gut metagenome, 24 h, 2 µM
[4] = human gut metagenome, 24 h, 2 µM; remark: listed apart in the source
[5] = human gut metagenome, 24 h, 2 µM; remark: listed apart in the source
[6] = human gut metagenome, 24 h, 2 µM; remark: listed apart in the source
[7] = human gut metagenome, 24 h, 2 µM; remark: listed apart in the source
[8] = human gut metagenome, 24 h, 2 µM; remark: listed apart in the source
[9] = human gut metagenome, 24 h, 2 µM; remark: listed apart in the source
[10] = as §1, with “Z-009” for “WLS-370”, “pig” for “human”, “ERS12561809” for “ERS12561793”; settings: 2 µM
[11] = as §1, with “Z-026” for “WLS-370”, “to” for “to human gut”, “ERS12561825” for “ERS12561793”; settings: 2 µM
[12] = human gut metagenome, 24 h, 2 µM; remark: listed apart in the source
[13] = human gut metagenome, 24 h, 2 µM; remark: listed apart in the source
[14] = as §1, with “WLS-086” for “WLS-370”, “ERS12561752” for “ERS12561793”; settings: 2 µM
[15] = as §1, with “Z-029” for “WLS-370”, “rat” for “human”, “ERS12561828” for “ERS12561793”; settings: 2 µM
[16] = as §1, with “WLS-027” for “WLS-370”, “ERS12561744” for “ERS12561793”; settings: 2 µM
[17] = as §1, with “Z-024” for “WLS-370”, “pig” for “human”, “ERS12561823” for “ERS12561793”; settings: 2 µM
[18] = as §1, with “WLS-090” for “WLS-370”, “ERS12561753” for “ERS12561793”; settings: 2 µM
[19] = as §1, with “Z-022” for “WLS-370”, “mouse” for “human”, “ERS12561821” for “ERS12561793”; settings: 2 µM
[20] = as §1, with “Z-004” for “WLS-370”, “to” for “to human gut”, “ERS12561804” for “ERS12561793”; settings: 2 µM
Note: call rule not given here.

Structure (SMILES) | Bacterial Biotransformation [1] | Bacterial Biotransformation [2] | Bacterial Biotransformation [3] | Bacterial Biotransformation [4] | Bacterial Biotransformation [5] | Bacterial Biotransformation [6] | Bacterial Biotransformation [7] | Bacterial Biotransformation [8] | Bacterial Biotransformation [9] | Bacterial Biotransformation [10] | Bacterial Biotransformation [11] | Bacterial Biotransformation [12] | Bacterial Biotransformation [13] | Bacterial Biotransformation [14] | Bacterial Biotransformation [15] | Bacterial Biotransformation [16] | Bacterial Biotransformation [17] | Bacterial Biotransformation [18] | Bacterial Biotransformation [19] | Bacterial Biotransformation [20]
Cc1cc2c(cc1S(N)(=O)=O)S(=O)(=O)CCC2 | Compound NOT metabolized | Compound NOT metabolized | Compound NOT metabolized | Compound NOT metabolized | Compound NOT metabolized | Compound NOT metabolized | Compound NOT metabolized | Compound NOT metabolized | Compound NOT metabolized | Compound NOT metabolized | Compound NOT metabolized | Compound NOT metabolized | Compound NOT metabolized | Compound NOT metabolized | Compound NOT metabolized | Compound NOT metabolized | Compound NOT metabolized | Compound NOT metabolized | Compound NOT metabolized | Compound NOT metabolized
CN1CCc2c(c3ccccc3n2Cc2ccccc2)C1.CN1CCc2c(c3ccccc3n2Cc2ccccc2)C1.O=S(=O)(O)c1cccc2c(S(=O)(=O)O)cccc12 | Compound metabolized | Compound NOT metabolized | Compound NOT metabolized | Compound NOT metabolized | Compound NOT metabolized | Compound metabolized | Compound NOT metabolized | Compound metabolized | Compound NOT metabolized | Compound NOT metabolized | Compound NOT metabolized | Compound NOT metabolized | Compound NOT metabolized | Compound NOT metabolized | Compound NOT metabolized | Compound metabolized | Compound metabolized | Compound metabolized | Compound NOT metabolized | Compound NOT metabolized
CN1CC(=O)N2[C@H](c3ccc4c(c3)OCO4)c3[nH]c4ccccc4c3C[C@@H]2C1=O | Compound metabolized | Compound NOT metabolized | Compound NOT metabolized | Compound metabolized | Compound metabolized | Compound metabolized | Compound metabolized | Compound metabolized | Compound metabolized | Compound metabolized | Compound NOT metabolized | Compound metabolized | Compound NOT metabolized | Compound metabolized | Compound NOT metabolized | Compound metabolized | Compound metabolized | Compound metabolized | Compound metabolized | Compound metabolized
NC12CC3CC(CC(C3)C1)C2 [AMANTADINE] | Compound NOT metabolized | Compound NOT metabolized | Compound NOT metabolized | Compound NOT metabolized | Compound NOT metabolized | Compound NOT metabolized | Compound NOT metabolized | Compound NOT metabolized | Compound NOT metabolized | Compound NOT metabolized | Compound NOT metabolized | Compound NOT metabolized | Compound NOT metabolized | Compound NOT metabolized | Compound NOT metabolized | Compound NOT metabolized | Compound NOT metabolized | Compound NOT metabolized | Compound metabolized | Compound NOT metabolized

Results, then the molecule that gave them:

Bacterial Biotransformation [1] | Bacterial Biotransformation [2] | Bacterial Biotransformation [3] | Bacterial Biotransformation [4] | Bacterial Biotransformation [5] | Bacterial Biotransformation [6] | Bacterial Biotransformation [7] | Bacterial Biotransformation [8] | Bacterial Biotransformation [9] | Bacterial Biotransformation [10] | Bacterial Biotransformation [11] | Bacterial Biotransformation [12] | Bacterial Biotransformation [13] | Bacterial Biotransformation [14] | Bacterial Biotransformation [15] | Bacterial Biotransformation [16] | Bacterial Biotransformation [17] | Bacterial Biotransformation [18] | Bacterial Biotransformation [19] | Bacterial Biotransformation [20] | Structure (SMILES)
Compound metabolized | Compound metabolized | Compound metabolized | Compound metabolized | Compound metabolized | Compound metabolized | Compound metabolized | Compound metabolized | Compound NOT metabolized | Compound metabolized | Compound metabolized | Compound metabolized | Compound metabolized | Compound metabolized | Compound NOT metabolized | Compound metabolized | Compound metabolized | Compound metabolized | Compound metabolized | Compound metabolized | CCCc1nc2c(C)cc(-c3nc4ccccc4n3C)cc2n1Cc1ccc(-c2ccccc2C(=O)O)cc1
Compound metabolized | Compound NOT metabolized | Compound metabolized | Compound metabolized | Compound metabolized | Compound metabolized | Compound metabolized | Compound metabolized | Compound NOT metabolized | Compound NOT metabolized | Compound NOT metabolized | Compound metabolized | Compound metabolized | Compound metabolized | Compound NOT metabolized | Compound metabolized | Compound NOT metabolized | Compound metabolized | Compound NOT metabolized | Compound NOT metabolized | CCCCC(=O)N(Cc1ccc(-c2ccccc2-c2nnn[nH]2)cc1)[C@H](C(=O)O)C(C)C
Compound metabolized | Compound metabolized | Compound NOT metabolized | Compound metabolized | Compound NOT metabolized | Compound metabolized | Compound metabolized | Compound metabolized | Compound NOT metabolized | Compound metabolized | Compound NOT metabolized | Compound metabolized | Compound NOT metabolized | Compound metabolized | Compound NOT metabolized | Compound NOT metabolized | Compound NOT metabolized | Compound metabolized | Compound metabolized | Compound NOT metabolized | COc1cc2nc(N(C)CCCNC(=O)C3CCCO3)nc(N)c2cc1OC (stereo not given) [ALFUZOSIN]
Compound metabolized | Compound NOT metabolized | Compound NOT metabolized | Compound NOT metabolized | Compound NOT metabolized | Compound metabolized | Compound metabolized | Compound NOT metabolized | Compound NOT metabolized | Compound metabolized | Compound NOT metabolized | Compound NOT metabolized | Compound NOT metabolized | Compound NOT metabolized | Compound NOT metabolized | Compound NOT metabolized | Compound metabolized | Compound metabolized | Compound metabolized | Compound NOT metabolized | CC(C)(C#N)c1cc(Cn2cncn2)cc(C(C)(C)C#N)c1 [ANASTROZOLE]

Reference: ChEMBL document CHEMBL5724914, “Linking interpersonal differences in gut microbiota composition and drug biotransformation activity” (2024)
